Measurements as given in US12486300B2, “Mithramycin oxime derivatives having increased selectivity and anti-cancer activity” (University of Kentucky Research Foundation, priority 2018, dated 2025).

Legend:
Type in all cases: cell-based
[1] = test system: G-401 (ATTC Cat. No., CRL-1441); Rhabdoid tumor of the kidney; assay: Growth inhibition assay, G-401 cells; conditions: for IC50: Table 1C; for EC50: Table 1D
Protocol: (§1) Growth inhibition assay to assess cytotoxicity in ETS vs non-ETS expressing cells. Cells were seeded in clear 96-well plates (VWR, Radnor, PA). Seeding densities were optimized for each cell line to support 5 days of linear growth. Following a 24 hours attachment period, cells in duplicate wells were treated with half-log increments of respective compounds (0 nM and 0.3 nM-10 μM). Working stocks were prepared from an initial 10 mM drug stock diluted in either 100% ethanol or dimethyl sulfoxide (DMSO). All wells contained a final concentration of 0.1% (v/v) respective organic solvent. Immediately following treatment, cell viability was measured for vehicle control (Day 0) wells. Cell viability was measured in the remaining wells after 72 hours of incubation with compound or vehicle control (Day 3). For viability measurements, 0.1 mM resazurin (Sigma, St. Louis, MO) was added to wells and following 3 hours of incubation at 37° C., fluorescence readings (EM 560 nm, EX 590 nm) were recorded using a SpectraMax M5 plate reader (Molecular Devices, Sunnyvale, CA).
(§2) Percent viability, relative to the initial cell seeding concentration, was calculated by ((TreatmentDay3−Vehicle ControlDay0)/(Vehicle ControlDay3−Vehicle ControlDay0))×100. Percent cell viability was plotted as a function of compound concentration (Log [M]) and the data were fit using a 3-parameter non-linear model with fixed Hill slope constant and 4-parameter non-linear model with variable Hill slope constant. The model with the best curve fit was used to estimate the GI50 in GraphPad Prism 7.0 software (GraphPad Software, La Jolla, CA). The 3-parameter equation used was Y=Bottom+(Top−Bottom)/(1+10[…]((X−Log[IC50]))). The 4-parameter equation used was Y=Bottom+(Top−Bottom)/(1+10[…]((Log[IC50]−X)*Hillslope)). Top and Bottom are plateaus in the units of the Y-axis (response). IC50 is the response (Y-axis) halfway between Top and Bottom plateaus.
(§3) GI50 values were determined by pooling all available experiments and reported with 95% confidence interval, calculated from GraphPad Prism 7.0 software curve fit. All compounds were tested at least once in multi-well replicates and each experiment included one a control compound (i.e., MTM) to ensure the stable response of the cell lines. The selectivity index was estimated by determining the ratio of GI50 estimates between ETS fusion negative and ETS fusion positive cell lines.

[2] = test system: TC32 Ewing sarcoma cells, expressing EWS-FLI1; assay: Growth inhibition assay, TC32 cells; conditions: for TC32 vs. PC3 / IC50: Table 1C; for TC32 vs. PC3: cellular selectivity; for IC50: read-out: IC50 TC-32; for EC50: Table 1D, read-out: TC-32 Mean EC50; for PC:TC32 (cellular selectivity): ratio of GI50 PC3 to TC32
[3] = test system: A-204 (ATTC Cat. No., HTB-82); Rhabdomyosarcoma (embryonal); assay: Growth inhibition assay, A-204 cells; conditions: for IC50: Table 1C; for EC50: Table 1D
Protocol: as §1, §2, §3

[4] = test system: PC3 Prostate Cancer Cells; assay: Growth inhibition assay, PC3 cells; conditions: for IC50: Table 1C; for EC50: Table 1D
Protocol: as §1, with “3).” for “3). For viability measurements, 0.1 mM resazurin (Sigma, St. Louis, MO) was added to wells and following 3 hours of incubation at 37° C., fluorescence readings (EM 560 nm, EX 590 nm) were recorded using a SpectraMax M5 plate reader (Molecular Devices, Sunnyvale, CA).”
as §2
All compounds were tested at least once in multi-well replicates and each experiment included one a control compound (i.e., MTM) to ensure the stable response of the cell lines. The selectivity index was estimated by determining the ratio of GI50 estimates between ETS fusion negative and ETS fusion positive cell lines.

[5] = test system: RH30 muscle rhabdomyosarcoma; assay: Growth inhibition assay, RH30 cells; conditions: Table 1D
Protocol: as §1, §2, §3

[6] = test system: U-2 OS bone osteosarcoma; assay: Growth inhibition assay, U-2 OS cells; conditions: Table 1D
Protocol: as §1, §2, §3

## COC(C(=NOCC(=O)NC(Cc1c[nH]c2ccccc12)C(=O)N1CCOCC1)C(O)C(C)O)C1Cc2cc3cc(OC4CC(OC5CC(O)C(O)C(C)O5)C(O)C(C)O4)c(C)c(O)c3c(O)c2C(=O)C1OC1CC(OC2CC(OC3CC(C)(O)C(O)C(C)O3)C(O)C(C)O2)C(O)C(C)O1 (stereo not shown) [MTM102]
[1]
  IC50: 514 nM
  EC50: 591 nM
[2]
  TC32 vs. PC3: 17×
  IC50: 156 nM
  EC50: 162 nM
[3]
  IC50: 2300 nM
  EC50: 2740 nM
[4]
  IC50: 2700 nM
  EC50: 1650 nM

## CCN(CC)C(=O)C(Cc1c[nH]c2ccccc12)NC(=O)CON=C(C(O)C(C)O)C(OC)C1Cc2cc3cc(OC4CC(OC5CC(O)C(O)C(C)O5)C(O)C(C)O4)c(C)c(O)c3c(O)c2C(=O)C1OC1CC(OC2CC(OC3CC(C)(O)C(O)C(C)O3)C(O)C(C)O2)C(O)C(C)O1 (stereo not shown) [MTM103]
[1]
  EC50: 25.5 nM
[2]
  EC50: 23.5 nM
[5]
  EC50: 29.4 nM
[3]
  EC50: 194 nM
[4]
  EC50: 91.3 nM

## COC(C(=NOCC(=O)NC(Cc1c[nH]c2ccccc12)C(=O)N1CCC1)C(O)C(C)O)C1Cc2cc3cc(OC4CC(OC5CC(O)C(O)C(C)O5)C(O)C(C)O4)c(C)c(O)c3c(O)c2C(=O)C1OC1CC(OC2CC(OC3CC(C)(O)C(O)C(C)O3)C(O)C(C)O2)C(O)C(C)O1 (stereo not shown) [MTM104]
[6]
  EC50: > 10000 nM
[1]
  IC50: 219 nM
  EC50: 222 nM
[2]
  TC32 vs. PC3: 8×
  IC50: 87 nM
  EC50: 91.7 nM
[5]
  EC50: 295 nM
[3]
  IC50: 864 nM
  EC50: 883 nM
[4]
  IC50: 730 nM
  EC50: 671 nM

## COC(C(=NOCC(=O)NC(Cc1c[nH]c2ccccc12)C(=O)N1CC(C)(C)C1)C(O)C(C)O)C1Cc2cc3cc(OC4CC(OC5CC(O)C(O)C(C)O5)C(O)C(C)O4)c(C)c(O)c3c(O)c2C(=O)C1OC1CC(OC2CC(OC3CC(C)(O)C(O)C(C)O3)C(O)C(C)O2)C(O)C(C)O1 (stereo not shown) [MTM105]
[6]
  EC50: > 10000 nM
[1]
  EC50: 23.4 nM
[2]
  EC50: 29.4 nM
[5]
  EC50: 45.9 nM
[4]
  EC50: 177 nM

## CNC(=O)[C@H](Cc1c[nH]c2ccccc12)NC(=O)CO/N=C(\[C@@H](O)[C@@H](C)O)[C@@H](OC)[C@@H]1Cc2cc3cc(O[C@H]4C[C@@H](O[C@H]5C[C@@H](O)[C@H](O)C(C)O5)[C@H](O)C(C)O4)c(C)c(O)c3c(O)c2C(=O)[C@H]1O[C@H]1C[C@@H](O[C@H]2C[C@@H](O[C@H]3C[C@](C)(O)[C@H](O)C(C)O3)[C@H](O)C(C)O2)[C@H](O)C(C)O1 (stereo partly shown) [MTM (40)]
[6]
  EC50: > 10000 nM
[1]
  EC50: 40.2 nM
[2]
  EC50: 414 nM
  PC:TC32 (cellular selectivity): 11.8
[5]
  EC50: 1200 nM
[3]
  EC50: 256 nM
[4]
  EC50: 2900 nM

## CCOC(=O)[C@H](Cc1c[nH]c2ccccc12)NC(=O)CO/N=C(\[C@@H](O)[C@@H](C)O)[C@@H](OC)[C@@H]1Cc2cc3cc(O[C@H]4C[C@@H](O[C@H]5C[C@@H](O)[C@H](O)C(C)O5)[C@H](O)C(C)O4)c(C)c(O)c3c(O)c2C(=O)[C@H]1O[C@H]1C[C@@H](O[C@H]2C[C@@H](O[C@H]3C[C@](C)(O)[C@H](O)C(C)O3)[C@H](O)C(C)O2)[C@H](O)C(C)O1 (stereo partly shown) [MTM (41)]
[2]
  EC50: 266 nM
  PC:TC32 (cellular selectivity): 13.5
[4]
  EC50: 4060 nM

## CO[C@H](/C(=N/OCC(=O)N[C@@H](Cc1c[nH]c2ccccc12)C(N)=O)[C@@H](O)[C@@H](C)O)[C@@H]1Cc2cc3cc(O[C@H]4C[C@@H](O[C@H]5C[C@@H](O)[C@H](O)C(C)O5)[C@H](O)C(C)O4)c(C)c(O)c3c(O)c2C(=O)[C@H]1O[C@H]1C[C@@H](O[C@H]2C[C@@H](O[C@H]3C[C@](C)(O)[C@H](O)C(C)O3)[C@H](O)C(C)O2)[C@H](O)C(C)O1 (stereo partly shown) [MTM (42)]
[2]
  EC50: 304 nM
  PC:TC32 (cellular selectivity): 8.5
[4]
  EC50: 3550 nM

## CO[C@H](/C(=N/OCC(=O)N[C@@H](Cc1c[nH]c2ccccc12)C(=O)N(C)C)[C@@H](O)[C@@H](C)O)[C@@H]1Cc2cc3cc(O[C@H]4C[C@@H](O[C@H]5C[C@@H](O)[C@H](O)C(C)O5)[C@H](O)C(C)O4)c(C)c(O)c3c(O)c2C(=O)[C@H]1O[C@H]1C[C@@H](O[C@H]2C[C@@H](O[C@H]3C[C@](C)(O)[C@H](O)C(C)O3)[C@H](O)C(C)O2)[C@H](O)C(C)O1 (stereo partly shown) [MTM (44)]
[2]
  EC50: 84.5 nM
  PC:TC32 (cellular selectivity): 35
[4]
  EC50: > 1470 nM

## CO[C@H](/C(=N/OCC(=O)N[C@@H](Cc1c[nH]c2ccccc12)C(=O)N(C)OC)[C@@H](O)[C@@H](C)O)[C@@H]1Cc2cc3cc(O[C@H]4C[C@@H](O[C@H]5C[C@@H](O)[C@H](O)C(C)O5)[C@H](O)C(C)O4)c(C)c(O)c3c(O)c2C(=O)[C@H]1O[C@H]1C[C@@H](O[C@H]2C[C@@H](O[C@H]3C[C@](C)(O)[C@H](O)C(C)O3)[C@H](O)C(C)O2)[C@H](O)C(C)O1 (stereo partly shown) [MTM (54)]
[2]
  EC50: 67 nM
  PC:TC32 (cellular selectivity): 1.7
[4]
  EC50: 437 nM

## CO[C@H](/C(=N/OCC(=O)N[C@@H](Cc1c[nH]c2ccccc12)c1nc(C)co1)[C@@H](O)[C@@H](C)O)[C@@H]1Cc2cc3cc(O[C@H]4C[C@@H](O[C@H]5C[C@@H](O)[C@H](O)C(C)O5)[C@H](O)C(C)O4)c(C)c(O)c3c(O)c2C(=O)[C@H]1O[C@H]1C[C@@H](O[C@H]2C[C@@H](O[C@H]3C[C@](C)(O)[C@H](O)C(C)O3)[C@H](O)C(C)O2)[C@H](O)C(C)O1 (stereo partly shown) [MTM (57)]
[6]
  EC50: > 10000 nM
[1]
  EC50: 712 nM
[2]
  EC50: 74 nM
  PC:TC32 (cellular selectivity): 3.3
[3]
  EC50: 3180 nM
[4]
  EC50: > 1680 nM

## CO[C@H](/C(=N/OCC(=O)N[C@H](CO)Cc1c[nH]c2ccccc12)[C@@H](O)[C@@H](C)O)[C@@H]1Cc2cc3cc(O[C@H]4C[C@@H](O[C@H]5C[C@@H](O)[C@H](O)C(C)O5)[C@H](O)C(C)O4)c(C)c(O)c3c(O)c2C(=O)[C@H]1O[C@H]1C[C@@H](O[C@H]2C[C@@H](O[C@H]3C[C@](C)(O)[C@H](O)C(C)O3)[C@H](O)C(C)O2)[C@H](O)C(C)O1 (stereo partly shown) [MTM (59)]
[2]
  EC50: 84.7 nM
  PC:TC32 (cellular selectivity): 4.8
[4]
  EC50: 313 nM
